Measured values published in PubChem BioAssay AID192 (DTP/NCI, 2004).
Values joined by “and” are separate entries in the source; they are usually repeats but may differ in a detail not shown here. Identical values can stand only once. Inconclusive results and toxic doses are left out. The calls were made as follows: active = survival T/C of 150% or more; inactive = T/C below 125% in these data.

System: BDF1 mice, B16 melanoma ip, median survival T/C
Experiment: NCI In Vivo Anticancer Drug Screen. Data for tumor model B16 Melanoma (intraperitoneal) in B6D2F1 (BDF1) mice
Conditions: endpoint: median survival time, higher = longer survival
Method in brief: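 Compounds were tested in mice carrying transplantable tumors. Survival or tumor size was recorded, and each value is the treated-group measurement (T) divided by that of the vehicle-treated control group (C).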

[1] = dose: 100.0 mg/kg/injection, schedule: Q01DX009 (ip), vehicle: saline with Tween-80
[2] = dose: 100.0 mg/kg/injection, schedule: Q01DX009 (ip), vehicle: Klucel (hydroxypropylcellulose) (HPC)
[3] = dose: 200.0 mg/kg/injection, schedule: Q01DX009 (ip), vehicle: Klucel (hydroxypropylcellulose) (HPC)
[4] = dose: 400.0 mg/kg/injection, schedule: Q01DX009 (ip), vehicle: Klucel (hydroxypropylcellulose) (HPC)
[5] = dose: 12.5 mg/kg/injection, schedule: Q01DX009 (ip), vehicle: Klucel (hydroxypropylcellulose) (HPC)
[6] = dose: 25.0 mg/kg/injection, schedule: Q01DX009 (ip), vehicle: Klucel (hydroxypropylcellulose) (HPC)

Measured: T/C

C/C=C1\CN(C)[C@H]2Cc3c([nH]c4ccccc34)[C@@H](c3cc4[nH]c5c(c4cc3OC)CCN3C[C@H]4C[C@H](CC)[C@H]3[C@@]5(C(=O)OC)C4)C[C@H]1C2C(=O)OC (stereo partly specified)
inactive: dose: 2.5 mg/kg/injection, schedule: Q01DX009 (ip), vehicle: suspension in saline 98 % of control | dose: 3.0 mg/kg/injection, schedule: Q01DX009 (ip), vehicle: saline with Tween-80 100 % of control | dose: 5.0 mg/kg/injection, schedule: Q01DX009 (ip), vehicle: suspension in saline 101 % of control | dose: 6.0 mg/kg/injection, schedule: Q01DX009 (ip), vehicle: saline with Tween-80 95 % of control | dose: 10.0 mg/kg/injection, schedule: Q01DX009 (ip), vehicle: suspension in saline 99 % of control | dose: 12.0 mg/kg/injection, schedule: Q01DX009 (ip), vehicle: saline with Tween-80 106 % of control | dose: 25.0 mg/kg/injection, schedule: Q04DX003 (ip), vehicle: saline with Tween-80 90 % of control | [1] 87 % of control

CCCCCC(=O)c1ccc(O)cc1O
inactive: dose: 12.5 mg/kg/injection, schedule: Q01DX009 (ip), vehicle: gum acacia 102 % of control | dose: 25.0 mg/kg/injection, schedule: Q01DX009 (ip), vehicle: gum acacia 89 % of control

Cc1c(N)nc([C@H](CC(N)=O)NC[C@H](N)C(N)=O)nc1C(=O)N[C@H](C(=O)N[C@H](C)[C@@H](O)[C@H](C)C(=O)N[C@H](C(=O)NCCc1nc(-c2nc(C(=O)NCCC[S+](C)C)cs2)cs1)[C@@H](C)O)C(OC1OC(CO)C(O)C(O)C1OC1OC(CO)C(O)C(OC(N)=O)C1O)c1cnc[nH]1 (stereo partly specified)
inactive: dose: 1.0 mg/kg/injection, schedule: Q01DX009 (ip), vehicle: clinical formulation 114 % of control | dose: 2.0 mg/kg/injection, schedule: Q01DX009 (ip), vehicle: clinical formulation 121 % of control | dose: 3.9 mg/kg/injection, schedule: Q01DX009 (ip), vehicle: saline 102 % of control | dose: 4.0 mg/kg/injection, schedule: Q01DX009 (ip), vehicle: clinical formulation 120 % of control | dose: 7.8 mg/kg/injection, schedule: Q01DX009 (ip), vehicle: saline 102 % of control | dose: 8.0 mg/kg/injection, schedule: Q01DX009 (ip), vehicle: clinical formulation 124 % of control | dose: 15.6 mg/kg/injection, schedule: Q01DX009 (ip), vehicle: saline 102 % of control | dose: 16.0 mg/kg/injection, schedule: Q01DX009 (ip), vehicle: clinical formulation 123 % of control | dose: 31.3 mg/kg/injection, schedule: Q01DX009 (ip), vehicle: saline 109 % of control

Cc1cc2c(cc1C)NC(=O)C(C)CN2 (stereo unspecified)
inactive: [2] 90 % of control | [3] 88 % of control | [4] 87 % of control

CCCCC(CCCC)(C(N)=O)C(=O)OCC
inactive: [2] 106 % of control | [3] 100 % of control | [4] 103 % of control

NC(Cn1cc(N(CCCl)CCCl)c(=O)[nH]c1=O)C(=O)O (stereo unspecified)
inactive: dose: 6.0 mg/kg/injection, schedule: Q01DX009 (ip), vehicle: saline 104 % of control | dose: 12.0 mg/kg/injection, schedule: Q01DX009 (ip), vehicle: saline 115 % of control

CCCCC(=O)N(c1ccc(Nc2c3ccccc3nc3cc([N+](=O)[O-])ccc23)cc1)S(C)(=O)=O
inactive: dose: 3.8 mg/kg/injection, schedule: Q01DX009 (ip), vehicle: saline with Tween-80 102 % of control | dose: 12.5 mg/kg/injection, schedule: Q01DX001 (ip), vehicle: saline with Tween-80 122 % of control | dose: 15.0 mg/kg/injection, schedule: Q01DX009 (ip), vehicle: saline with Tween-80 120 % of control

Cc1ccc(C(=O)CCC(=O)O)c(C)c1
inactive: [1] 90 % of control | dose: 200.0 mg/kg/injection, schedule: Q01DX009 (ip), vehicle: saline with Tween-80 93 % of control

CC1(C)N=C(N)N=C(N)N1c1cc(Cl)ccc1Cl
inactive: dose: 6.25 mg/kg/injection, schedule: Q01DX009 (ip), vehicle: Klucel (hydroxypropylcellulose) (HPC) 94 % of control | [5] 92 % of control | [6] 89 % of control and 94 % of control

CC(C)CC(NC(=O)c1ccccc1)C(=O)O (stereo unspecified)
inactive: [1] 97 % of control

O=c1oc(-c2ccccc2I)nc2ccccc12
inactive: [2] 99 % of control | [3] 94 % of control

N=C(N)SCc1cccc([N+](=O)[O-])c1
inactive: [5] 93 % of control | [6] 103 % of control | dose: 50.0 mg/kg/injection, schedule: Q01DX009 (ip), vehicle: Klucel (hydroxypropylcellulose) (HPC) 97 % of control
